# Data taken from patent US11957759B1, “Rapidly accelerated fibrosarcoma (RAF) degrading compounds and associated methods of use” (Arvinas Operations, Inc., priority 2022, dated 2024).
# What was measured:
# B-RAF V600E = biological target: T1, B-RAF V600E (Homo sapiens, UniProt P15056, V600E); assay: Target protein degradation, assay C: T-Rex 293 cells, HA-BRAF_V600E, 384 well format; format: cell-based; settings: T-Rex 293 HA-BRAF_V600E cells, 24 hours, Examples 83-269; for DC50: Assay C; for Dmax: T-REx-293, Assay C
# T1 construct: expressed in transfected cells; host or cells: T-Rex 293 cells (Invitrogen #R71007)
# Method: C. T-Rex 293 Cells (384 Well Format)
# (§1) T-Rex 293 cells were purchased from Invitrogen (#R71007), and stably transfected with a pcDNA4/TO_HA-BRAF_V600E construct, using 400 ug Zeocin for selection. V600E cells are plated in DMEM media (Gibco #11965118) containing 10% FBS (Gibco #16000044), 1% penicillin-streptomycin (ThermoFisher #15140122), 1:250 zeocin (Invitrogen #R-25005), and 1 ng/mL doxycycline (Selleckchem #4163) at a density of 7,500 cells/well in 45 μl on PDL coated, black clear bottom 384 well plates (Corning #354663) and incubated at 37° C.+5% CO2 for 24 hours. The following day, PROTAC compounds in a 1:3 11 point dilution are diluted into DMEM media using an Agilent Bravo. 5 ul of PROTACs suspended in DMEM media are added to the cells, with a final assay concentration ranging from 300 nM to 5 pM in 0.5% DMSO. Plates are incubated at 37° C.+5% CO2 for 24 hours. At the end of treatment, media is aspirated, and cells are fixed in 50 uL 4% PFA (EMS #15710) in PBS++(PBS, 1 mM CaCl, 1 mM MgCl) at RT for 15 minutes. Cells are washed 2× with 60 uL PBS++ and permeabilized in 50 uL 1% Triton X-100 (Sigma #93443) in PBS++ for 5 minutes at RT. Cells are washed in PBS++ prior to blocking with 50 uL Licor blocking buffer (Licor #927-60001) for 1 hour at RT. HA-tagged BRAF was stained using 50 uL HA antibody (CST #3724) at 1:1000 in Licor blocking buffer for two hours at RT. Primary is aspirated before adding 50 ul of secondary antibody solution containing 1:1000 Hoechst (ThermoFisher #62249), 1:1000 HCS CellMask Deep Red Stain (ThermoFisher #H32721), and 1:5000 goat anti-rabbit IgG Alexa-Fluor 488 (ThermoFisher #A32731) in PBS++ for 1 hr at RT. Plates are washed 4× with 60 uL PBS++, then sealed with Adhesive Black Light Absorbing Film (VWR #89087-692) and imaged on the ThermoFisher CX7 PRO high content instrument. BRAF intensity is quantified in HCS Studio software (ThermoFisher), using a custom script, exported, analyzed using KNIME, and curve curation is performed in an ELN (Scilligence). Cell toxicity is measured via comparing number of nuclei in PROTAC treated wells to DMSO controls.
# (§2) The concentration of an exemplary compound that leads to half maximal degradation (DC50) as well as the maximum degradation observed (Dmax, conventionally expressed as a percentage of control) is shown below in Table 2.
# B-RAF G466V = biological target: T2, B-RAF G466V (Homo sapiens, UniProt P15056, G466V); assay: Target protein degradation, assay D: T-Rex 293 cells, HA-BRAF_G466V, 384 well format; format: cell-based; settings: T-Rex 293 HA-BRAF_G466V cells, 24 hours, Examples 83-269; for DC50: Assay D; for Dmax: T-REx-293, Assay D
# T2 construct: expressed in transfected cells; host or cells: T-Rex 293 cells (Invitrogen #R71007)
# Method: D. T-Rex 293 Cells (384 Well Format)
# as §1, with “pcDNA4/TO_HA-BRAF_G466V” for “pcDNA4/TO_HA-BRAF_V600E”, “G466V” for “V600E”
# as §2
# T2 sequence (P15056 whole entry G466V): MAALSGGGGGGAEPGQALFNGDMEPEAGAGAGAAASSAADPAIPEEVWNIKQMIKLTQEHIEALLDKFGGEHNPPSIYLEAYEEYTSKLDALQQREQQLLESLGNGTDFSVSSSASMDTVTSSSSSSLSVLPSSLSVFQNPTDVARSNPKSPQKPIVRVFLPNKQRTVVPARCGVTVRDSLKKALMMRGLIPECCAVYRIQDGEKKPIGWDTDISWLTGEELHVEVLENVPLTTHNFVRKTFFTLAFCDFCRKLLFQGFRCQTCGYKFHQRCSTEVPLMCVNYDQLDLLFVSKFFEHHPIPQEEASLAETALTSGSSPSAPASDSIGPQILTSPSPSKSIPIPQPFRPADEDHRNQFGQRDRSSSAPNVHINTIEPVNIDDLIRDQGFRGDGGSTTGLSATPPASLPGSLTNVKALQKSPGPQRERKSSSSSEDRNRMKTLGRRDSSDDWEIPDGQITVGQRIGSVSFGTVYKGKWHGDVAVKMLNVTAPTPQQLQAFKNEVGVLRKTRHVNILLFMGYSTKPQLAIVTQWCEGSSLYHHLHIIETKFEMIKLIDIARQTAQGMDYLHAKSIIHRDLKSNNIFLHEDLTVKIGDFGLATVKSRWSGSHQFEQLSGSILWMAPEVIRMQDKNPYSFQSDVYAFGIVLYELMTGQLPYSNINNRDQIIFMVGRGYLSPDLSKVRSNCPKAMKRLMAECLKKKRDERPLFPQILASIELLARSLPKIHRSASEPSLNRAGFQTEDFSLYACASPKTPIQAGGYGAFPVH
# T1 sequence (P15056 whole entry V600E): as the sequence (P15056 whole entry G466V) above, with V466G, V600E counted along it
SMILES,DC50 (B-RAF V600E),Dmax (B-RAF V600E),DC50 (B-RAF G466V),Dmax (B-RAF G466V)
"N#Cc1c(NS(=O)(=O)N2CC[C@@H](F)C2)ccc(F)c1Oc1ccc2ncn(-c3ccc(C4CCCN(CC5CCN(c6ccc7c(c6)CN([C@H]6CCC(=O)NC6=O)C7=O)CC5)C4)cc3)c(=O)c2c1 (stereo partly drawn) [Example 207, (3R)-N-(2-cyano-3-{[3-(4-{1-[(1-{2-[(3S)-2,6-dioxopiperidin-3-yl]-1-oxo-2,3-dihydro-1H-isoindol-5-yl}piperidin-4-yl)methyl]piperidin-3-yl}phenyl)-4-oxo-3,4-dihydroquinazolin-6-yl]oxy}-4-fluorophenyl)-3-fluoropyrrolidine-1-sulfonamide]",50 to 500 nM,≥ 70%,1 to 10 nM,35 to 70%
"N#Cc1c(NS(=O)(=O)N2CC[C@@H](F)C2)ccc(F)c1Oc1ccc2ncn(-c3ccn(C4CCN(CC5CCN(c6ccc7c(c6)CN([C@H]6CCC(=O)NC6=O)C7=O)CC5)CC4)n3)c(=O)c2c1 [Example 248, (3R)—N-(2-cyano-3-{[3-(1-{1-[(1-{2-[(3S)-2,6-dioxopiperidin-3-yl]-1-oxo-2,3-dihydro-1H-isoindol-5-yl}piperidin-4-yl)methyl]piperidin-4-yl}-1H-pyrazol-3-yl)-4-oxo-3,4-dihydroquinazolin-6-yl]oxy}-4-fluorophenyl)-3-fluoropyrrolidine-1-sulfonamide]",50 to 500 nM,≥ 70%,1 to 10 nM,≥ 70%
"N#Cc1c(NS(=O)(=O)N2CC[C@@H](F)C2)ccc(F)c1Oc1ccc2ncn(-c3cnc(N4CC5(CN(CC6CCN(c7cccc8c7C(=O)N(C7CCC(=O)NC7=O)C8=O)CC6)C5)C4)nc3)c(=O)c2c1 (stereo partly drawn) [Example 154, (3R)-N-{2-cyano-3-[(3-(2-[6-({1-[2-(2,6-dioxopiperidin-3-yl)-1,3-dioxo-2,3-dihydro-1H-isoindol-4-yl]piperidin-4-yl}methyl)-2,6-diazaspiro[3.3]heptan-2-yl]pyrimidin-5-yl}-4-oxo-3,4-dihydroquinazolin-6-yl)oxy]-4-fluorophenyl}-3-fluoropyrrolidine-1-sulfonamide]",50 to 500 nM,≤ 35%,10 to 30 nM,≤ 35%
N#Cc1c(NS(=O)(=O)N2CC[C@@H](F)C2)ccc(F)c1Oc1ccc2ncn(-c3ccc(N4CCC(CN5CC(c6ccc7c(c6)CN([C@@H]6CCC(=O)NC6=O)C7=O)C5)CC4)cc3)c(=O)c2c1 [Example 216],50 to 500 nM,35 to 70%,1 to 10 nM,≤ 35%
"N#Cc1c(NS(=O)(=O)N2CC[C@@H](F)C2)ccc(F)c1Oc1ccc2ncn(-c3ccc(N4CCC(CN5CCN(c6ccc7c(c6)CN([C@H]6CCC(=O)NC6=O)C7=O)CC5)C4)cc3)c(=O)c2c1 (stereo partly drawn) [Example 217, (3R)-N-(2-cyano-3-{[3-(4-{3-[(4-{2-[(3S)-2,6-dioxopiperidin-3-yl]-1-oxo-2,3-dihydro-1H-isoindol-5-yl}piperazin-1-yl)methyl]pyrrolidin-1-yl}phenyl)-4-oxo-3,4-dihydroquinazolin-6-yl]oxy}-4-fluorophenyl)-3-fluoropyrrolidine-1-sulfonamide]",50 to 500 nM,35 to 70%,1 to 10 nM,≤ 35%

# Other lines, results leading:
DC50 (B-RAF V600E),Dmax (B-RAF V600E),DC50 (B-RAF G466V),Dmax (B-RAF G466V),SMILES
5 to 50 nM,≤ 35%,10 to 30 nM,35 to 70%,"N#Cc1c(NS(=O)(=O)N2CC[C@@H](F)C2)ccc(F)c1Oc1ccc2ncn(-c3ccc(N4CCC(CN5CCC(Oc6ccc7c(c6)C(=O)N(C6CCC(=O)NC6=O)C7=O)CC5)CC4)nc3)c(=O)c2c1 (stereo partly drawn) [Example 149, (3R)-N-(2-cyano-3-{[3-(6-{4-[(4-{[2-(2,6-dioxopiperidin-3-yl)-1,3-dioxo-2,3-dihydro-1H-isoindol-5-yl]oxy}piperidin-1-yl)methyl]piperidin-1-yl}pyridin-3-yl)-4-oxo-3,4-dihydroquinazolin-6-yl]oxy}-4-fluorophenyl)-3-fluoropyrrolidine-1-sulfonamide]"
50 to 500 nM,35 to 70%,1 to 10 nM,35 to 70%,"N#Cc1c(NS(=O)(=O)N2CC[C@@H](F)C2)ccc(F)c1Oc1ccc2ncn(-c3ccn(C4CC5(C4)CN(CC4CCN(c6ccc7c(c6)CN(C6CCC(=O)NC6=O)C7=O)CC4)C5)n3)c(=O)c2c1 (stereo partly drawn) [Example 97, (3R)-N-{2-cyano-3-[(3-{1-[2-({1-[2-(2,6-dioxopiperidin-3-yl)-1-oxo-2,3-dihydro-1H-isoindol-5-yl]piperidin-4-yl}methyl)-2-azaspiro[3.3]heptan-6-yl]-1H-pyrazol-3-yl}-4-oxo-3,4-dihydroquinazolin-6-yl)oxy]-4-fluorophenyl}-3-fluoropyrrolidine-1-sulfonamide]"
50 to 500 nM,35 to 70%,1 to 10 nM,35 to 70%,"N#Cc1c(NS(=O)(=O)N2CC[C@@H](F)C2)ccc(F)c1Oc1ccc2ncn(-c3ccc(N4CCC5(CCN(CC6CCN(c7ccc8c(c7)CN([C@@H]7CCC(=O)NC7=O)C8=O)CC6)CC5)CC4)cc3)c(=O)c2c1 [Example 201, (3R)-N-(2-cyano-3-{[3-(4-{9-[(1-{2-[(3R)-2,6-dioxopiperidin-3-yl]-1-oxo-2,3-dihydro-1H-isoindol-5-yl}piperidin-4-yl)methyl]-3,9-diazaspiro[5.5]undecan-3-yl}phenyl)-4-oxo-3,4-dihydroquinazolin-6-yl]oxy}-4-fluorophenyl)-3-fluoropyrrolidine-1-sulfonamide]"
50 to 500 nM,35 to 70%,1 to 10 nM,35 to 70%,"N#Cc1c(NS(=O)(=O)N2CC[C@@H](F)C2)ccc(F)c1Oc1ccc2ncn(-c3ccc(N4CCC(CN5CC6(CCC(c7ccc8c(c7)CN([C@H]7CCC(=O)NC7=O)C8=O)CC6)C5)CC4)cc3)c(=O)c2c1 [Example 219, (3R)-N-(2-cyano-3-{[3-(4-{4-[(7-{2-[(3S)-2,6-dioxopiperidin-3-yl]-1-oxo-2,3-dihydro-1H-isoindol-5-yl}-2-azaspiro[3.5]nonan-2-yl)methyl]piperidin-1-yl}phenyl)-4-oxo-3,4-dihydroquinazolin-6-yl]oxy}-4-fluorophenyl)-3-fluoropyrrolidine-1-sulfonamide]"
